Here are results for six compounds from PMC12290673, “Antileishmanial and Antitoxoplasmal Activities of 1,4-Dihydropyridines” (ACS Omega, 2025).

The EC50 is the concentration at which the effect is half-maximal. For orientation: IC50 means the point on the concentration scale where inhibition reaches its midpoint.

Structures are written as SMILES. Where two headings read alike, the source gives them in different places. Where only a bound is given, the exact number is not on record here.

Test [1] has as its system L. major amastigotes. In words: Activity against L. major amastigotes in peritoneal macrophages (percentage of infected macrophages, Giemsa, 72 h). In kind it is cell-based, Leishmania major. The conditions noted are these: Leishmania major, intracellular amastigotes, mean ± SD, read-out: EC50 L. major ama. As for the experimental part: (§1) L. major promastigotes were isolated and maintained according to a described method. BALB/c mice were injected at the hind footpads with 1 × 10^6 L. major metacyclic promastigotes. L. major amastigotes were collected from the infected mice. After 8 weeks had elapsed since inoculation, Schneider’s medium (Invitrogen, USA) containing antibiotics and 10% FBS was used to transform isolated amastigotes into promastigotes by incubation at 26 °C. Amastigote-derived promastigotes with less than five in vitro passages were only used for infection.
(§2) Female BALB/c mouse peritoneal macrophages (6–8 weeks old) were used to culture L. major amastigotes to assess the activity of the compounds against amastigotes. Briefly, 1 mL of 3% Brewer’s thioglycollate medium/mouse was injected into the peritoneal cavity. After 4 days, the abdominal skin was removed to expose the peritoneal wall. Then, 3 mL of RPMI 1640 medium was injected before cells were collected by aspiration, whereupon 96-well plates containing RPMI 1640 medium with 10% FBS were used to culture 5 × 10^4 cells/well, which were incubated at 37 °C under 5% CO2 for 4 h. After washing with PBS, RPMI 1640 medium containing 5 × 10^5 promastigotes were added to each well. Next, the cells were incubated at 37 °C under humidified 5% CO2 for 24 h to enhance infection and differentiation of amastigotes. Washing with PBS several times removed free promastigotes. Fresh complete RPMI 1640 medium containing one of the tested compounds or AmB at the desired final concentration (50, 25, 12.5, 6.25, 3.13, 1.65, 0.75, or 0.37 μg mL^–1) was added and incubated at 37 °C under a humidified 5% CO2 atmosphere for 72 h. DMSO (1%), only in complete RPMI media, was used as the negative control. The percentage of infected macrophages was assessed microscopically after the medium was removed, followed by washing with PBS, fixation with methanol, and staining with Giemsa. The reading was performed in triplicate. Handling of the laboratory animals followed the instructions and rules of the Committee of Research Ethics, Deanship of Scientific Research, Qassim University, permission number 20–03–20.

In test [2] the test system is Vero cells. The experiment in a line: Cytotoxicity assay (MTT), Vero cells. In kind it is cell-based, African Green Monkey. The conditions noted are these: Chlorocebus sabaeus, 72 h, mean ± SD. As for the experimental part: (§3) The MTT colorimetric assay was conducted to assess the cytotoxicity of the compounds according to a method described previously. Briefly, Vero cells or macrophages were cultured in 96-well plates (5 × 10^3 cells/well/200 μL) in RPMI 1640 medium with 10% FBS at 37 °C and under 5% CO2 for 24 h. Thereafter, PBS was used to wash the cells. Then, the compounds in RPMI complete medium with 10% FBS (at varying concentrations of 50, 25, 12.5, 6.25, 3.13, 1.65, 0.75, or 0.37 μg mL^–1) were added to 96-well plates and incubated for 72 h. Cells treated with a medium containing only DMSO (1%) were used as the negative control. After washing, MTT (1 mg mL^–1 in RPMI 1640 medium) was added to each well. The cells were incubated for 4 h, and the supernatant was removed. Next, 150 μL of DMSO was added, and a microplate absorbance spectrophotometer was applied for colorimetric analysis (λ = 540 nm). Cytotoxic effects were expressed by IC50 values (concentration that caused a 50% reduction of viable cells). The experiment was performed in triplicate.

For test [3], the system named is L. amazonensis promastigotes. On the set-up: method as in Oliveira and co-workers. The conditions noted are these: ref Oliveira and co-workers, cited from earlier work.
Test [4] concerns macrophages. In words: Cytotoxicity assay (MTT), macrophages. The conditions noted are these: Mus musculus, Macrophage; 72 h, mean ± SD; read-out: IC50 macro. In kind it is cell-based, BALB/c mouse. The protocol:
as §2, §3

Test [5] concerns L. major promastigotes. The experiment in a line: Activity against L. major promastigotes (MTT, 72 h). In kind it is cell-based, Leishmania major. The conditions noted are these: mean ± SD, read-out: EC50 L. major prom. The protocol:
as §1
To assess the activity of the compounds against L. major promastigotes, 10^6 promastigotes/mL were cultured in 96-well plates in Schneider’s medium with 10% FBS. Then, the compounds or amphotericin B (AmB) were added to obtain the final concentrations (50, 25, 12.5, 6.25, 3.13, 1.65, 0.75, or 0.37 μg mL^–1). Negative control wells contained cultures with DMSO (1%) only. Plates were incubated at 26 °C for 72 h to evaluate the antiproliferative effect. The colorimetric MTT method was used to count viable promastigotes under a microplate absorbance spectrophotometer (xMark, Bio-Rad, USA) at 570 nm. The experiment was performed in triplicate.

The test system of test [6] is T. gondii tachyzoites (RH strain). The experiment in a line: Anti-Toxoplasma activity (infection index in Vero cells, 72 h). In kind it is cell-based, Toxoplasma gondii. The conditions noted are these: Toxoplasma gondii, Vero, mean ± SD. As for the experimental part:
Tachyzoites of the T. gondii RH strain were cultivated in Vero cells according to a published method. Complete RPMI 1640 medium (Invitrogen, USA) with 10% fetal bovine serum (FBS, Invitrogen, USA) was used to culture Vero cells in 96-well plates (5 × 10^3 cells/well in 200 μL of medium), which were incubated at 37 °C and under 5% CO2 for 24 h. This was followed by washing with phosphate-buffered saline (PBS) to remove the medium. Then, RPMI 1640 medium with 2% FBS containing T. gondii tachyzoites (RH strain) at a ratio of 5 (parasite): 1 (Vero cells) was added. After incubation at 37 °C and under 5% CO2 for 5 h, the cells were washed with PBS and overlaid with medium containing one of the tested compounds or atovaquone (ATO) at 50, 25, 12.5, 6.25, 3.13, 1.65, 0.75, or 0.37 μg mL^–1.
After incubation at 37 °C and under 5% CO2 for 72 h, the cells were stained with 1% toluidine before being examined under an inverted photomicroscope (MCD-400, Leica, Japan) to determine the T. gondii infection index (number of infected cells from 200 tested cells). The experiment was performed in triplicate.

Test [7] concerns L. amazonensis amastigotes. Further details: method as in Oliveira and co-workers. The conditions noted are these: ref Oliveira and co-workers; read-out: IC50 against L. amazonensis amastigotes; cited from earlier work.

Consider `CCOC(=O)C1=C(C)NC(C)=C(C(=O)OCC)C1c1cccc([N+](=O)[O-])c1` [Compound 22], for which the EC50 in test [1] was greater than 55.6 µM; in test [5] (Leishmania major), less than 50 µM; in test [5], 46.5 ± 7.7 µM. The results for the IC50 in test [2] and in test [4] were 29.9 ± 4.4 µM and 46.5 ± 7.4 µM, respectively. For the same compound, the “activity against L. amazonensis promastigotes” value (shortened to “activity”) in test [3] was “inactive”.

For the compound `CCOC(=O)C1=C(C)NC2=C(C(=O)CC(C)(C)C2)C1c1ccc2c(c1)OCO2` (stereo not shown) [Compound 12], the EC50 in test [6] is 30.3 ± 5.2 µM; in test [1], greater than 60.6 µM; in test [5] (Leishmania major), less than 50 µM; in test [5], 47.5 ± 6.2 µM. Besides, the values for the IC50 in test [2] and in test [4] were 14.9 ± 2.6 µM and 42.5 ± 7.2 µM, respectively. Also, the “activity” value in test [3] is “inactive”.

On to `CCOC(=O)C1=C(C)NC2=C(C(=O)CC(C)(C)C2)C1c1cccc(F)c1` (stereo not shown) [Compound 7], for which the EC50 in test [6], in test [1] and in test [5] (Leishmania major) was greater than 58.2 µM each time. For the same compound, the IC50 in test [7] is 12.5 µM; in test [2], greater than 58.2 µM; in test [4] it was greater than 58.2 µM.

`CCOC(=O)C1=C(C)NC(C)=C(C(=O)OCC)C1c1cc(OC)c(OC)c(OC)c1` [Compound 24]: the concentration giving a half-maximal response (EC50) in test [6] was greater than 49.6 µM; in test [1] it was greater than 49.6 µM; in test [5] (Leishmania major) it was less than 50 µM; in test [5], 42.7 ± 8 µM. The IC50 in test [2] was determined as 14.8 ± 2.6 µM; in test [4], 34.1 ± 5.5 µM. Further, the “activity” value in test [3] was “inactive”.

Turning to `CCOC(=O)C1=C(C)NC2=C(C(=O)CC(C)(C)C2)C1c1cc(OC)c(OC)c(OC)c1` (stereo not shown) [Compound 13], the EC50 in test [6], in test [1] and in test [5] (Leishmania major) was greater than 48.4 µM each time. Moreover, the 50% inhibitory concentration (IC50) in test [2] is greater than 48.4 µM; in test [3] (read-out: IC50 against L. amazonensis promastigotes), 24.6 µM; in test [4] it was greater than 48.4 µM.

In the case of `CCOC(=O)C1=C(C)NC2=C(C(=O)CC(C)(C)C2)C1c1c(OC)cc(OC)cc1OC` (stereo not shown) [Compound 14], the EC50 in test [6] was greater than 48.4 µM; in test [1], 21 ± 3.9 µM. In addition, the half-maximal inhibitory concentration (IC50) in test [2] is 22.8 ± 3.3 µM; in test [4] it was 16.8 ± 3.1 µM. Besides, the “activity” value in test [3] is “inactive”.
